Measurements as given in patent US9238656B2, “Imidazo[4,5-b]pyridine derivatives as ALK and JAK modulators for the treatment of proliferative disorders” (priority 2012, dated 2016).
Counter-ions that a name gives are not always drawn.

What was measured:
[1] = target: baculovirus-expressed JAK2 kinase (Homo sapiens, UniProt O60674); assay: biochemical; details: 0.2 μM ATP; read-out: JAK2 Potency
Method in brief: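 Time-resolved fluorescence kinase assay using 15 ng/mL baculovirus-expressed JAK2 on Neutravidin-captured biotinylated 15-mer peptide substrate, reaction 20 min at room temperature. IC50 from percent inhibition versus log concentration, sigmoidal variable-slope fit.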

[2] = target: baculovirus-expressed ALK (Homo sapiens, UniProt Q9UM73); assay: ALK kinase inhibition, TRF/ELISA; format: biochemical; details: read-out: ALK Potency
Method in brief: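 Plates were coated with GST-PLC-γ substrate (10 μg/mL) and the reaction was started with 30 ng/mL ALK, running 15 min at 37° C. Phosphotyrosine was detected by time-resolved fluorescence with Eu-labeled PT66 antibody. IC50s came from variable-slope sigmoidal fits of percent inhibition versus log concentration.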

Chain of baculovirus-expressed ALK (Q9UM73 19-1620): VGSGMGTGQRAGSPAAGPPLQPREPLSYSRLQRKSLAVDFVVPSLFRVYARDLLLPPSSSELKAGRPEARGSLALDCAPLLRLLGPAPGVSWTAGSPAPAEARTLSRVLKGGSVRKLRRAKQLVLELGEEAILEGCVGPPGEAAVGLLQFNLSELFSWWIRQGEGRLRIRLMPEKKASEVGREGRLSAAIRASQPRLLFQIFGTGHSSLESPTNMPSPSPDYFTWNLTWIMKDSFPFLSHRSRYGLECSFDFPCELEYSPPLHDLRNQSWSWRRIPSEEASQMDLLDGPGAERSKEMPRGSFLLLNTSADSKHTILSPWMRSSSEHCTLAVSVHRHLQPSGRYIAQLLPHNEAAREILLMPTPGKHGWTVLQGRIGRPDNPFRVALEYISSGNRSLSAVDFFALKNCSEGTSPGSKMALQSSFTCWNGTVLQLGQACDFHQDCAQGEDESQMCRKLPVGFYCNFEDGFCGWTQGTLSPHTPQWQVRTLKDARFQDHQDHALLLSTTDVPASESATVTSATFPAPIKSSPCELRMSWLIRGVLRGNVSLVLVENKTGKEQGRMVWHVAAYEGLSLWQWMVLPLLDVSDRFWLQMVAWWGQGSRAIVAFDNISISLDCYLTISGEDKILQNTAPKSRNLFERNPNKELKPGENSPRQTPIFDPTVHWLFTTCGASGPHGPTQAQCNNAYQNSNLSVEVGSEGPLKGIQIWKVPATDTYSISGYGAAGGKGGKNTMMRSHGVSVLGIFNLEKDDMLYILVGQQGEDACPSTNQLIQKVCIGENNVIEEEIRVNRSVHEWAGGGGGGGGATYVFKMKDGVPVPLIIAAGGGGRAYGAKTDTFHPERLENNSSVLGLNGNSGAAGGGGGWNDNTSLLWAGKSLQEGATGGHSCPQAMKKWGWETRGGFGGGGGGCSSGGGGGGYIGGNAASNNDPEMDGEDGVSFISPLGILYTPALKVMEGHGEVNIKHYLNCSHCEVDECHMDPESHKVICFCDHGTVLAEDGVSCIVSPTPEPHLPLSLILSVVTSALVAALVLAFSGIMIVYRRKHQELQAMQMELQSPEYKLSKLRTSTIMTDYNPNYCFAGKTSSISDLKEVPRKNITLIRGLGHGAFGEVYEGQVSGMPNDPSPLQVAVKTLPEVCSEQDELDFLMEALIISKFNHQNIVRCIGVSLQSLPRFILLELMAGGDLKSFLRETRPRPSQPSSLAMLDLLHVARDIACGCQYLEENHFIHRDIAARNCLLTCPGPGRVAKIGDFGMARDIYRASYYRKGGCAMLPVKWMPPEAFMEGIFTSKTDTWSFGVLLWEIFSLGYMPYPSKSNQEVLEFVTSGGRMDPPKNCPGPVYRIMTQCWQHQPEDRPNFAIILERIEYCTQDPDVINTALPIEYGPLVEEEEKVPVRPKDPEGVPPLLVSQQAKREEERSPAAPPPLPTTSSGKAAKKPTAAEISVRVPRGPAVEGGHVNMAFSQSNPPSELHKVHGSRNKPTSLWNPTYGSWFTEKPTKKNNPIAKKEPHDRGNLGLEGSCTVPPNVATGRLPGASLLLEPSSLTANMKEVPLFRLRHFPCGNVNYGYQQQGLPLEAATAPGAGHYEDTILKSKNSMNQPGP
Chain of baculovirus-expressed JAK2 kinase (O60674 whole entry): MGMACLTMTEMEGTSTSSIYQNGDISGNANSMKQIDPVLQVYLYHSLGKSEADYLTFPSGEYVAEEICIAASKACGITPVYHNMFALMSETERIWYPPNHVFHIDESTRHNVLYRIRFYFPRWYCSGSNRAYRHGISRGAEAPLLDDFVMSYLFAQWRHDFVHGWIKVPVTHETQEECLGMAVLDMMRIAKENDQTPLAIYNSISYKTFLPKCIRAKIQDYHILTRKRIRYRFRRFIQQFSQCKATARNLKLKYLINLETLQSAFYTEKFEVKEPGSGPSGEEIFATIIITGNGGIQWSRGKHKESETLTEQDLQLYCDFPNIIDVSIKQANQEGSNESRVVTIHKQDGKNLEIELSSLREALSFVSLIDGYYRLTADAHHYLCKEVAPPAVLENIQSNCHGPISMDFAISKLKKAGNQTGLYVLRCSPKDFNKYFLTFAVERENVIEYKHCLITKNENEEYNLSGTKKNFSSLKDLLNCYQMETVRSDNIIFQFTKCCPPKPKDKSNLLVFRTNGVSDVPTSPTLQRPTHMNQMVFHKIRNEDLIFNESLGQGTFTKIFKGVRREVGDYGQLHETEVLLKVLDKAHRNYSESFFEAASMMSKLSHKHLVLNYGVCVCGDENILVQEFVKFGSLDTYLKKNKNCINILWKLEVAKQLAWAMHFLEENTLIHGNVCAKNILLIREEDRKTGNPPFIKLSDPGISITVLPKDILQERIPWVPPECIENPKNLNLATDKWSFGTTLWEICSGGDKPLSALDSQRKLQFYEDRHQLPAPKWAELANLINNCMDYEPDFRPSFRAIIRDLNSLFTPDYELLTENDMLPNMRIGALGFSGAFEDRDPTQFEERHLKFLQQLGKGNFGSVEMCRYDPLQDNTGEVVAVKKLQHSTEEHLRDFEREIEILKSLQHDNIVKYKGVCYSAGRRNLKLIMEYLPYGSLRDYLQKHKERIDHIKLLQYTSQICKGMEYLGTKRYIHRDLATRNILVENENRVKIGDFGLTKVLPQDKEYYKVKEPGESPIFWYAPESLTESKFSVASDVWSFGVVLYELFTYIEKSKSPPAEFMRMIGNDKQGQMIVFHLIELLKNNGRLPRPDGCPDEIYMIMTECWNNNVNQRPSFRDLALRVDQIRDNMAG

Question: Which melting point does the source give for `NC(=O)[C@@H]1[C@H](Nc2c(Br)cnc3[nH]c(-c4ccc(CN5CCOCC5)cc4)nc23)[C@H]2C=C[C@@H]1C2` (as salt: sodium) [Compound LXXX, (1S,2S,3R,4R)-3-[6-Bromo-2-(4-morpholin-4-ylmethyl-phenyl)-3H-imidazo[4,5-b]pyridin-7-ylamino]-bicyclo[2.2.1]hept-5-ene-2-carboxylic acid amide] here?
Answer: The melting point was 217 to 219 °C.

Question: What does the source list for `CN1CCN(c2ccc(-c3nc4c(N[C@H]5[C@@H](C(N)=O)[C@@H]6C=C[C@H]5C6)c(Br)cnc4[nH]3)cc2)CC1` [Compound LXXVIII, (1S,2S,3R,4R)-3-{6-Bromo-2-[4-(4-methyl-piperazin-1-yl)-phenyl]-3H-imidazo[4,5-b]pyridin-7-ylamino}-bicyclo[2.2.1]hept-5-ene-2-carboxylic acid amide]?
Answer: melting point: 215 to 218 °C; IC50 [1]: < 100 nM

Question: For `NC(=O)[C@@H]1[C@H](Nc2c(Br)cnc3[nH]c(-c4ccc(N5CCOCC5)cc4)nc23)[C@H]2C=C[C@@H]1C2` [Compound LXXIX, (1S,2S,3R,4R)-3-[6-Bromo-2-(4-morpholin-4-yl-phenyl)-3H-imidazo[4,5-b]pyridin-7-ylamino]-bicyclo[2.2.1]hept-5-ene-2-carboxylic acid amide], which melting point is on record?
Answer: Its melting point is 283 to 284 °C.

Question: And the IC50 [1]?
Answer: The IC50 was under 100 nM.

Question: With `CN1CCN(C(=O)COc2ccc(-c3nc4c(N[C@H]5[C@@H](C(N)=O)[C@@H]6C=C[C@H]5C6)c(Cl)cnc4[nH]3)cc2)CC1` [Compound CCXLIV, (1S,2S,3R,4R)-3-(6-chloro-2-(4-(2-(4-methylpiperazin-1-yl)-2-oxoethoxy)phenyl)-3H-imidazo[4,5-b]pyridin-7-ylamino)bicyclo[2.2.1]hept-5-ene-2-carboxamide] as the compound, how does the IC50 [2] read?
Answer: Its IC50 is under 100 nM.

Question: And the IC50 [1]?
Answer: Its IC50 is under 100 nM.

Question: Which IC50 [2] does the source give for `COc1cc(C2CCN(C[C@H](C)O)CC2)ccc1-c1nc2c(N[C@H]3[C@@H](C(N)=O)[C@@H]4C=C[C@H]3C4)c(Cl)cnc2[nH]1` [Compound XLV, (1S,2S,3R,4R)-3-(6-Chloro-2-{4-[1-((S)-2-hydroxypropyl)-piperidin-4-yl]-2-methoxyphenyl}-3H-imidazo[4,5-b]pyridine-7-ylamino)-bicyclo[2.2.1]hept-5-ene-2-carboxylic acid amide] here?
Answer: Its IC50 is under 100 nM.

Question: And the IC50 [1]?
Answer: The IC50 was under 100 nM.

Question: For `COc1cc(N(C)C)ccc1-c1nc2c(N[C@H]3[C@@H](C(N)=O)[C@@H]4C=C[C@H]3C4)c(Cl)cnc2[nH]1` [Compound XVII, (1S,2S,3R,4R)-3-[6-Chloro-2-(4-dimethylamino-2-methoxy-phenyl)-3H-imidazo[4,5-b]pyridine-7-ylamino]-bicyclo[2.2.1]hept-5-ene-2-carboxylic acid amide], which IC50 [2] is on record?
Answer: The IC50 was under 100 nM.

Question: And the IC50 [1]?
Answer: The IC50 was under 100 nM.

Question: Which results are given for `CN(C)CCOc1cccc(-c2nc3c(N[C@H]4[C@@H](C(N)=O)[C@@H]5C=C[C@H]4C5)c(Cl)cnc3[nH]2)c1` [Compound CCXLVII, (1S,2S,3R,4R)-3-(6-chloro-2-(3-(2-(dimethylamino)ethoxy)phenyl)-3H-imidazo[4,5-b]234yridine-7-ylamino)pyridin[2.2.1]hept-5-ene-2-carboxamide]?
Answer: IC50 [2]: < 100 nM; IC50 [1]: < 100 nM

Question: What does the source list for `CN(C)CCOc1ccc(-c2nc3c(N[C@H]4[C@@H](C(N)=O)[C@@H]5C=C[C@H]4C5)c(Cl)cnc3[nH]2)cc1` [Compound CCXLIX, (1S,2S,3R,4R)-3-(6-chloro-2-(4-(2-(dimethylamino)ethoxy)phenyl)-3H-imidazo[4,5-b]pyridin-7-ylamino)bicyclo[2.2.1]hept-5-ene-2-carboxamide]?
Answer: IC50 [2]: < 100 nM; IC50 [1]: < 100 nM

Question: Which IC50 [2] does the source give for `COc1ncc(-c2nc3c(N[C@H]4[C@@H](C(N)=O)[C@@H]5C=C[C@H]4C5)c(Cl)cnc3[nH]2)s1` [Compound CCIX, (1S,2S,3R,4R)-3-(6-chloro-2-(2-methoxythiazol-5-yl)-3H-imidazo[4,5-b]pyridin-7-ylamino)bicyclo[2.2.1]hept-5-ene-2-carboxamide] here?
Answer: Its IC50 is 100 to 1000 nM.

Question: What about the IC50 [1] of the same compound?
Answer: Its IC50 is under 100 nM.

Question: Which IC50 [2] does the source give for `COc1cc(CN2CC[C@@H](O)C2)ccc1-c1nc2c(N[C@H]3[C@@H](C(N)=O)[C@@H]4C=C[C@H]3C4)c(Cl)cnc2[nH]1` [Compound XLVII, (1S,2S,3R,4R)-3-(6-Chloro-2-[4-((R)-3-hydroxy-pyrrolidin-1-ylmethyl)-2-methoxyphenyl]-3H-imidazo[4,5-b]pyridine-7-ylamino)-bicyclo[2.2.1]hept-5-ene-2-carboxylic acid amide] here?
Answer: The IC50 was under 100 nM.

Question: What about the IC50 [1] of the same compound?
Answer: The IC50 was under 100 nM.

Question: With `NC(=O)[C@@H]1[C@H](Nc2c(Cl)cnc3[nH]c(-c4sc(N5CCCC5)nc4Cl)nc23)[C@H]2C=C[C@@H]1C2` [Compound CLXVI, (1S,2S,3R,4R)-3-[6-Chloro-2-(4-chloro-2-pyrrolidin-1-yl-thiazol-5-yl)-3H-imidazo[4,5-b]pyridin-7-ylamino]-bicyclo[2.2.1]hept-5-ene-2-carboxylic acid amide] as the compound, how does the IC50 [2] read?
Answer: Its IC50 is under 100 nM.

Question: And the IC50 [1]?
Answer: Its IC50 is under 100 nM.

Question: Which IC50 [2] does the source give for `CC(C)(C)OC(=O)N1CCCC(c2nc3c(N[C@H]4[C@@H](C(N)=O)[C@@H]5C=C[C@H]4C5)c(Cl)cnc3[nH]2)C1` (stereo partly drawn) [Compound XI, 3-[7-((1R,2R,3S,4S)-3-Carbamoyl-bicyclo[2.2.1]hept-5-en-2-ylamino)-6-chloro-3H-imidazo[4,5-b]pyridine-2-yl]-piperidine-1-carboxylic acid tert-butyl ester] here?
Answer: The IC50 was over 10000 nM.

Question: And the IC50 [1]?
Answer: Its IC50 is over 10000 nM.

Question: With `NC(=O)[C@@H]1[C@H](Nc2c(Cl)cnc3[nH]c(-c4cnc(N5CCOCC5)s4)nc23)[C@H]2C=C[C@@H]1C2` [Compound CCX, (1S,2S,3R,4R)-3-(6-chloro-2-(2-morpholinothiazol-5-yl)-3H-imidazo[4,5-b]pyridin-7-ylamino)bicyclo[2.2.1]hept-5-ene-2-carboxamide] as the compound, how does the IC50 [2] read?
Answer: Its IC50 is under 100 nM.

Question: And the IC50 [1]?
Answer: Its IC50 is under 100 nM.

Question: For `O=C(NC1CC1)[C@@H]1[C@H](Nc2c(Cl)cnc3[nH]c(-c4sc(N5CCCC5)nc4Cl)nc23)[C@H]2C=C[C@@H]1C2` [Compound CLXXII, (1S,2S,3R,4R)-3-[6-Chloro-2-(4-chloro-2-pyrrolidin-1-yl-thiazol-5-yl)-3H-imidazo[4,5-b]pyridin-7-ylamino]-bicyclo[2.2.1]hept-5-ene-2-carboxylic acid cyclopropylamide], which IC50 [2] is on record?
Answer: The IC50 was under 100 nM.

Question: And the IC50 [1]?
Answer: Its IC50 is 100 to 1000 nM.

Question: With `CN(C)c1cccc(-c2nc3c(N[C@@H]4[C@H](C(N)=O)[C@H]5C=C[C@@H]4C5)c(Cl)cnc3[nH]2)c1` [Compound XXIV, (1R,2R,3S,4S)-3-[6-Chloro-2-(3-dimethylamino-phenyl)-3H-imidazo[4,5-b]pyridine-7-ylamino]-bicyclo[2.2.1]hept-5-ene-2-carboxylic acid amide] as the compound, how does the IC50 [2] read?
Answer: Its IC50 is over 10000 nM.

Question: What about the IC50 [1] of the same compound?
Answer: The IC50 was 100 to 1000 nM.

Question: For `NC(=O)[C@@H]1[C@H](Nc2c(Cl)cnc3[nH]c(-c4cncs4)nc23)[C@H]2C=C[C@@H]1C2` [Compound CCVII, (1S,2S,3R,4R)-3-(6-chloro-2-(thiazol-5-yl)-3H-imidazo[4,5-b]pyridin-7-ylamino)bicyclo[2.2.1]hept-5-ene-2-carboxamide], which IC50 [2] is on record?
Answer: Its IC50 is 100 to 1000 nM.

Question: And the IC50 [1]?
Answer: Its IC50 is under 100 nM.

Question: Which IC50 [2] does the source give for `Cc1nn(C)c(N2CCOCC2)c1-c1nc2c(N[C@H]3[C@@H](C(N)=O)[C@@H]4C=C[C@H]3C4)c(Cl)cnc2[nH]1` [Compound CXXII, (1S,2S,3R,4R)-3-[6-Chloro-2-(1,3-dimethyl-5-morpholin-4-yl-1H-pyrazol-4-yl)-3H-imidazo[4,5-b]pyridin-7-ylamino]-bicyclo[2.2.1]hept-5-ene-2-carboxylic acid amide] here?
Answer: The IC50 was 1000 to 10000 nM.

Question: What about the IC50 [1] of the same compound?
Answer: The IC50 was 1000 to 10000 nM.

Question: With `COc1cc(N2CCOCC2)ccc1-c1nc2c(NC34CCC(C)(C(O)C3)C4(C)C)c(Cl)cnc2[nH]1` (stereo not drawn) [Compound CCIII, 4-(6-chloro-2-(2-methoxy-4-morpholinophenyl)-3H-imidazo[4,5-b]pyridin-7-ylamino)-1,7,7-trimethylbicyclo[2.2.1]heptan-2-ol] as the compound, how does the IC50 [2] read?
Answer: Its IC50 is 100 to 1000 nM.

Question: And the IC50 [1]?
Answer: Its IC50 is 100 to 1000 nM.

Question: With `NC(=O)[C@@H]1[C@H](Nc2c(Cl)cnc3[nH]c(-c4ccc(N5CCOCC5)c(Cl)c4)nc23)[C@H]2C=C[C@@H]1C2` [Compound CXXXVII, (1S,2S,3R,4R)-3-[6-Chloro-2-(3-chloro-4-morpholin-4-yl-phenyl)-3H-imidazo[4,5-b]pyridin-7-ylamino]-bicyclo[2.2.1]hept-5-ene-2-carboxylic acid amide] as the compound, how does the IC50 [2] read?
Answer: The IC50 was 100 to 1000 nM.

Question: And the IC50 [1]?
Answer: Its IC50 is under 100 nM.

Question: What does the source list for `NC(=O)[C@@H]1[C@H](Nc2c(Cl)cnc3[nH]c(-c4ccc(C(=O)N5CCNCC5)cc4)nc23)[C@H]2C=C[C@@H]1C2` [Compound CCXX, (1S,2S,3R,4R)-3-(6-chloro-2-(4-(piperazine-1-carbonyl)phenyl)-3H-imidazo[4,5-b]pyridin-7-ylamino)bicyclo[2.2.1]hept-5-ene-2-carboxamide]?
Answer: IC50 [2]: < 100 nM; IC50 [1]: < 100 nM

Question: For `NC(=O)[C@@H]1[C@H](Nc2c(Cl)cnc3[nH]c(Nc4ccccc4)nc23)[C@H]2C=C[C@@H]1C2` [Compound LXVII, (1S,2S,3R,4R)-3-(6-Chloro-2-phenylamino-3H-imidazo[4,5-b]pyridine-7-ylamino)-bicyclo[2.2.1]hept-5-ene-2-carboxylic acid amide], which IC50 [2] is on record?
Answer: Its IC50 is 100 to 1000 nM.

Question: And the IC50 [1]?
Answer: The IC50 was under 100 nM.

Question: Which IC50 [2] does the source give for `CN(C)CCNC(=O)c1ccc(-c2nc3c(N[C@H]4[C@@H](C(N)=O)[C@@H]5C=C[C@H]4C5)c(Cl)cnc3[nH]2)cc1` [Compound CCXXXII, (1S,2S,3R,4R)-3-{6-Chloro-2-[4-(2-dimethylamino-ethylcarbamoyl)-phenyl]-3H-imidazo[4,5-b]pyridine-7-ylamino}-bicyclo[2.2.1]hept-5-ene-2-carboxylic acid amide] here?
Answer: The IC50 was under 100 nM.

Question: What about the IC50 [1] of the same compound?
Answer: The IC50 was under 100 nM.

Question: Which results are given for `CC(C)NC(=O)[C@@H]1[C@H](Nc2c(Cl)cnc3[nH]c(-c4sc(N5CC[C@@H](O)C5)nc4Cl)nc23)[C@H]2C=C[C@@H]1C2` [Compound CLXIX, (1S,2S,3R,4R)-3-{6-Chloro-2-[4-chloro-2-((R)-3-hydroxy-pyrrolidin-1-yl)-thiazol-5-yl]-1H-imidazo[4,5-b]pyridin-7-ylamino}-bicyclo[2.2.1]hept-5-ene-2-carboxylic acid isopropylamide]?
Answer: IC50 [2]: 100 to 1000 nM; IC50 [1]: 1000 to 10000 nM
